In paper PMC11714206, “Massively Parallel Screening of Toll/Interleukin‐1 Receptor (TIR)‐Derived Peptides Reveals Multiple Toll‐Like Receptors (TLRs)‐Targeting Immunomodulatory Peptides” (Advanced Science, 2024):
Where “and” joins values, the source holds several entries; their conditions need not be identical. Equal entries are not always repeated. One block for each sequence: values may come before it.

Target: T1, MyD88^TIR (Homo sapiens, UniProt Q99836)
T1 construct: MyD88 (residues 148–296); 6xHis; made in house; host or cells: E. coli BL21 (DE3)
Test: T‐Surf phage library (P8 and P3) selection against MyD88^TIR, four rounds, NGS read counts
Format: binding
Conditions: for P8_MyD88 Rank (after) / P8_MyD88 Rank (before): P8 library; for P3_MyD88 Rank (after) / P3_MyD88 Rank (before): P3 library; for Population: 4th round of selection against MyD88 TIR, share of NGS reads
Description: T‐Surf libraries were screened against the immobilized TIR domains of two major human TLR adaptor proteins, MAL^TIR and MyD88^TIR, allowing cross‐species selection of TIR‐binding motifs with 190 946 TIR‐derived peptides in a single binding assay (Scheme 1). Enriched phage pools from the fourth round of selection were analyzed using NGS after barcoding the peptide‐coding regions of the phage pools.
Phage display screening was performed by coating two wells of a 96‐well plate (Maxisorp, Thermo Fisher Scientific) with 100 µL of 5 µg mL^−1 TIR domains overnight; then, the coated wells were blocked with 200 µL of blocking buffer (0.2% BSA in PBS) and set aside for 1 h at 4 °C with gentle shaking. Next, 100 µL of the phage library was added to the wells and incubated for 1 h at room temperature (RT; 20 – 22 °C) with gentle shaking. The plate was washed four times with PBS containing 0.5% Tween‐20; the bound phages were eluted by adding 100 µL of 100 mM HCl to each well. The elute was neutralized with 10 µL of 1.0 M Tris‐HCl (pH 11.0). E. coli TG1 cells were grown to the log phase (A600 = ≈0.6), and 1 mL of the culture was incubated with 100 µL of the eluted phages for 30 min at 37 °C, with shaking at 200 rpm. Next, 1 µL of M13KO7 helper phages was added, followed by incubation for 45 min at 37 °C, with shaking. Subsequently, the cells were transferred to 25 mL of 2× yeast extract tryptone/carbenicillin/kanamycin medium and incubated overnight at 37 °C with shaking at 200 rpm. The amplified phages were precipitated with 20% PEG‐8000/2.5 M NaCl to be used for the next round of selection.
The naïve T‐Surf libraries in P8 and P3 and the enriched phage pools after four rounds were barcoded for NGS as previously described.^[ [59] ^] Briefly, 5 µL of the phage pool was used as a template for 20 cycles of a 50 µL PCR reaction using […] each of forward and reverse barcoded primers and PrimeSTAR Max DNA Polymerase. The PCR products were purified using Expin Gel SV (GeneAll). The NGS samples were quantified using qPCR, following the qPCR Quantification Protocol Guide (KAPA Library Quantification kits for Illumina Sequencing Platform), and qualified using the TapeStation High Sensitivity D1000 ScreenTape (Agilent Technologies). The indexed libraries were further sequenced by Macrogen (Seoul, Republic of Korea) using the NovaSeq platform (Illumina) with 100 bp paired‐end reads. The reads were demultiplexed by barcodes and filtered for an average Phred quality score of at least 30, followed by trimming the flanking consensus sequences using Cutadapt (version 2.3). Peptide sequence populations were analyzed according to the read counts.

[1] = selection against MyD88, rank by count after grouping
[2] = selection against MyD88, rank by count before grouping
[3] = P8_MyD88: rank by NGS read count after grouping
[4] = P8_MyD88: rank by NGS read count before grouping
[5] = P8_MyD88: rank by count after grouping
[6] = P8_MyD88: rank by count before grouping
[7] = 4R selection against MyD88, rank after grouping
[8] = 4R selection against MyD88, rank before grouping
[9] = selection against MyD88 TIR, rank by count after grouping
[10] = selection against MyD88 TIR, rank by count before grouping
[11] = selection against MyD88, rank after grouping
[12] = selection against MyD88, rank before grouping
[13] = P3_MyD88: rank by count after grouping
[14] = P3_MyD88: rank by count before grouping
[15] = P3_MyD88 pool: P3 T-Surf phage library
[16] = P8_MyD88 pool: P8 T-Surf phage library

T1 sequence (Q99836 148-296): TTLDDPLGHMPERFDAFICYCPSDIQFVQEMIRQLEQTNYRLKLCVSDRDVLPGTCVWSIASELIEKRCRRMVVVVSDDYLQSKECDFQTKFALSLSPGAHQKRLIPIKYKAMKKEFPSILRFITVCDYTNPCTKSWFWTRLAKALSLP

Sequence: DWEWDYRLPNLEGPAC
P8_MyD88 Rank (after) [1]: 745
P8_MyD88 Rank (before) [2]: 2487

Sequence: HLIQQGIELHLHQLHL
Rank (after) [3]: 941
Rank (before) [4]: 3556

Sequence: DHHLDLPRGKPIKREILG
P3_MyD88 Rank (after) [9]: 244
P3_MyD88 Rank (before) [10]: 2040

Sequence: DHHLDLPRGKAIKE
P3_MyD88 Rank (after) [11]: 550
P3_MyD88 Rank (before) [12]: 2017

Sequence: DSLFWDRLLYSLQFTE
Rank (after) [3]: 933
Rank (before) [4]: 3097

Sequence: AVDNETDKIQTPLKNE
P3_MyD88 Rank (after) [9]: 231
P3_MyD88 Rank (before) [10]: 1895

Sequence: YASSSWYLAELVHMPW
Rank (after) [3]: 989
Rank (before) [4]: 1854

Sequence: DPQDLQWFCERLVSLF
P8_MyD88 Rank (after) [9]: 281
P8_MyD88 Rank (before) [10]: 2908

Sequence: MFGGDTFHDFLDLLA
P8_MyD88 Rank (after) [1]: 690
P8_MyD88 Rank (before) [2]: 3664

Sequence: SGFREGLWRLLELSKK
Population [15]: 0.00291%

Sequence: NVHESEIIKEIVDTIV
Population [15]: 0.00291%

Sequence: LGYHWVVWEYFVGIED
P8_MyD88 Rank (after) [7]: 594
P8_MyD88 Rank (before) [8]: 3231

Sequence: WDFASDMEQVWDRLYY
Rank (after) [5]: 444
Rank (before) [6]: 1582

Sequence: LGYHWIVWEYLVGIKD
P8_MyD88 Rank (after) [7]: 652
P8_MyD88 Rank (before) [8]: 3245

Sequence: KDVEGWRDALTKVASL
Population [15]: 0.00349%

Sequence: EWIREQFRRALKERLP
P3_MyD88 Rank (after) [11]: 503
P3_MyD88 Rank (before) [12]: 2131

Sequence: DLLLCVFQTFFARLTE
Rank (after) [3]: 948
Rank (before) [4]: 2592

Sequence: SAAYDDIWERLNRMIE
Rank (after) [5]: 481
Rank (before) [6]: 3737

Sequence: SSFREGMWRLMVLSKK
P3_MyD88 Rank (after) [11]: 562
P3_MyD88 Rank (before) [12]: 3219

Sequence: LGYHWLDWEYFVSIED
Rank (after) [5]: 451
Rank (before) [6]: 3240

Sequence: DHHLALPRGKASKPEHLG
P3_MyD88 Rank (after) [11]: 525
P3_MyD88 Rank (before) [12]: 1994

Sequence: PRDLEWFYEHLVSLIL
P8_MyD88 Rank (after) [1]: 736
P8_MyD88 Rank (before) [2]: 3409

Sequence: YLQWGYPCFWDRLRFA
P3_MyD88 Rank (after) [9]: 251
P3_MyD88 Rank (before) [10]: 1559

Sequence: SSFREGLWRLLGLRKK
P3_MyD88 Rank (after) [11]: 553
P3_MyD88 Rank (before) [12]: 3165

Sequence: LKWGDPWFWDRLRFA
Population [15]: 0.00437%

Sequence: LGYQCIDWEYFVDIED
P8_MyD88 Rank (after) [7]: 644
P8_MyD88 Rank (before) [8]: 3332

Sequence: DPQDLGWFYERLVSLF
Population [16]: 0.00617%

Sequence: NQWRNALTAAANLIGR
P3_MyD88 Rank (after) [11]: 532
P3_MyD88 Rank (before) [12]: 3499

Sequence: YTALANSGCHTFRDND
Rank (after) [13]: 397
Rank (before) [14]: 1635

Sequence: LVAQEISKKMKIFATI
Population [15]: 0.00495% and 0.00466%

Sequence: SSFRGGLWRLLELSKK
Population [15]: 0.00349%

Sequence: NYASSTFALNELHYILRFI
P8_MyD88 Rank (after) [11]: 496
P8_MyD88 Rank (before) [12]: 3852

Sequence: DPQGVDLFYERQVSLL
P8_MyD88 Rank (after) [11]: 567
P8_MyD88 Rank (before) [12]: 2675

The remaining lines, values ahead:

P3_MyD88 Rank (after) [1]: 686
P3_MyD88 Rank (before) [2]: 3755
Sequence: KNLFNELVSKNIVPL

Rank (after) [5]: 470
Rank (before) [6]: 1677
Sequence: YYDSRWALDELLKILDAKETM

P8_MyD88 Rank (after) [7]: 612
P8_MyD88 Rank (before) [8]: 1716
Sequence: YAASPWWFYERVEILG

Rank (after) [3]: 884
Rank (before) [4]: 3218
Sequence: LGYYWNDWEYVVGIEE

Rank (after) [5]: 400
Rank (before) [6]: 3224
Sequence: LGYRWIVWEYFVGIED

Rank (after) [3]: 878
Rank (before) [4]: 1395
Sequence: WAFASNMAQFWDRLYS

P3_MyD88 Rank (after) [1]: 720
P3_MyD88 Rank (before) [2]: 1453
Sequence: YYLDPSHLRKQSGW

P8_MyD88 Rank (after) [9]: 246
P8_MyD88 Rank (before) [10]: 1595
Sequence: WDFASNMAQSWDRLYY

P8_MyD88 Rank (after) [9]: 256
P8_MyD88 Rank (before) [10]: 2682
Sequence: DPQALAWFYERLVSLF

Rank (after) [13]: 123
Rank (before) [14]: 3109
Sequence: SRYREGLWRLLELSKK

P8_MyD88 Rank (after) [9]: 208
P8_MyD88 Rank (before) [10]: 297
Sequence: FIRYLVWGLRDERLNL

P3_MyD88 Rank (after) [7]: 594
P3_MyD88 Rank (before) [8]: 2769
Sequence: HLLREFDKKLITAFQD

Rank (after) [5]: 426
Rank (before) [6]: 3247
Sequence: LGYHWIAWECFVGIED

P3_MyD88 Rank (after) [9]: 199
P3_MyD88 Rank (before) [10]: 3151
Sequence: SSFREGLWRLLEVSQK

P3_MyD88 Rank (after) [1]: 717
P3_MyD88 Rank (before) [2]: 3230
Sequence: SSFRKGVWRVRKLSKK

Rank (after) [3]: 925
Rank (before) [4]: 2010
Sequence: YLLLSVLHTRSARGYV

Rank (after) [5]: 180
Rank (before) [6]: 1108
Sequence: DPQDLEWLYERLVSLF

P8_MyD88 Rank (after) [9]: 221
P8_MyD88 Rank (before) [10]: 370
Sequence: TYLWWVEDERGQEYFW

Population [16]: 0.00848%
Sequence: NYGSNSWALNELLEIL

P3_MyD88 Rank (after) [1]: 725
P3_MyD88 Rank (before) [2]: 3201
Sequence: SSFREGLCRLLELSKQ

P8_MyD88 Rank (after) [7]: 667
P8_MyD88 Rank (before) [8]: 2991
Sequence: DPQELECLYERLFSQM

P8_MyD88 Rank (after) [7]: 618
P8_MyD88 Rank (before) [8]: 3317
Sequence: LGYHGLIGSILWALK

Rank (after) [13]: 178
Rank (before) [14]: 1654
Sequence: YTALTNICFHTFRDND

P3_MyD88 Rank (after) [1]: 737
P3_MyD88 Rank (before) [2]: 3250
Sequence: SSFHEGLWRMLELSKK

P8_MyD88 Rank (after) [11]: 516
P8_MyD88 Rank (before) [12]: 2958
Sequence: DPQDREWCYERLVSLL

P3_MyD88 Rank (after) [9]: 261
P3_MyD88 Rank (before) [10]: 1077
Sequence: LKVESWRQALDELVL

Rank (after) [13]: 108
Rank (before) [14]: 953
Sequence: DHHLDLPRGKAIKPEIL

P8_MyD88 Rank (after) [11]: 487
P8_MyD88 Rank (before) [12]: 3892
Sequence: KFFLFFMILAFSMNR

P3_MyD88 Rank (after) [1]: 733
P3_MyD88 Rank (before) [2]: 2336
Sequence: LQNQWELALTKKTKLV

P3_MyD88 Rank (after) [1]: 714
P3_MyD88 Rank (before) [2]: 1574
Sequence: YLKWGYVVLGSSAFC

Rank (after) [13]: 406
Rank (before) [14]: 1414
Sequence: WFWDKLKYALHRNRI

P8_MyD88 Rank (after) [7]: 666
P8_MyD88 Rank (before) [8]: 2903
Sequence: DPQDLHGIYERLVILF

Rank (after) [5]: 423
Rank (before) [6]: 2956
Sequence: DPQDRDWIYERLVSLF
